Molecules are shown by their SMILES. ≈ marks a conversion by molar mass, not a printed value.

For the experiment, the system named is Candida albicans. Put plainly: Antifungal activity against Candida albicans SC5314 assessed as reduction in fungal growth incubated for 24 hrs by CLSI based microdilution analysis. It counts as functional. On the technique in general: In broth dilution the organism is exposed to a series of concentrations in liquid medium.
What is called MIC80 is the lowest concentration that inhibits either 80% of growth or 80% of the strains tested, depending on the study. `O[C@](CN1CCN(CCn2ncc3ccccc32)CC1)(Cn1cncn1)c1ccc(F)cc1F`: the MIC80 was determined as 50 µg/mL (≈ 107 µM). For the molecule `COc1ccc2c(ccn2CCCCCCCCCCN2CCN(CC(O)(Cn3cncn3)c3ccc(F)cc3F)CC2)c1` (configuration not stated), the MIC80 is 0.5 µg/mL (≈ 0.821 µM). Regarding `O=C(c1ccc2c(c1)OCCO2)N1CCN(CC(O)(Cn2cncn2)c2ccc(F)cc2F)CC1` (configuration not stated), the MIC80 is 0.25 µg/mL (≈ 0.515 µM). In the case of `O=C1C(=O)N(CCN2CCN(CC(O)(Cn3cncn3)c3ccc(F)cc3F)CC2)c2ccc(Br)cc21` (configuration not stated), the MIC80 is 0.062 µg/mL (≈ 0.108 µM). Regarding `OC(CN1CCN(CCn2ccc3cc(Cl)cnc32)CC1)(Cn1cncn1)c1ccc(F)cc1F` (configuration not stated), the MIC80 is 0.062 µg/mL (≈ 0.124 µM). As to `Cc1ccc2oc(=O)c(C(=O)N3CCN(CC(O)(Cn4cncn4)c4ccc(F)cc4F)CC3)cc2c1` (configuration not stated), the MIC80 worked out at 0.125 µg/mL (≈ 0.245 µM). For the molecule `OC(CN1CCN(CCn2c3ccccc3c3cc(Cl)ccc32)CC1)(Cn1cncn1)c1ccc(F)cc1F` (configuration not stated), the MIC80 was 0.25 µg/mL (≈ 0.454 µM). On to `OC(CN1CCN(CCn2c3ccccc3c3ccccc32)CC1)(Cn1cncn1)c1ccc(F)cc1F` (configuration not stated), for which the MIC80 is 0.125 µg/mL (≈ 0.242 µM). Turning to `OC(CN1CCN(CCn2ccc3cccnc32)CC1)(Cn1cncn1)c1ccc(F)cc1F` (configuration not stated), the MIC80 was 0.062 µg/mL (≈ 0.133 µM).

In the case of `O=C(c1cc2cc(Br)ccc2oc1=O)N1CCN(CC(O)(Cn2cncn2)c2ccc(F)cc2F)CC1` (configuration not stated), the MIC80 was determined as 0.125 µg/mL (≈ 0.218 µM). Regarding `COc1ccc2c(cnn2CCN2CCN(CC(O)(Cn3cncn3)c3ccc(F)cc3F)CC2)c1` (configuration not stated), the MIC80 came to 0.062 µg/mL (≈ 0.125 µM). With `OC(CN1CCN(CCn2ccc3cc(Br)cnc32)CC1)(Cn1cncn1)c1ccc(F)cc1F` (configuration not stated), the MIC80 worked out at 0.062 µg/mL (≈ 0.113 µM).

For `CN1CCN(CC(O)(Cn2cncn2)c2ccc(F)cc2F)CC1` (configuration not stated), the MIC80 is 25 µg/mL (≈ 74.1 µM).

Regarding `O=c1ccc2ccc(OCCN3CCN(CC(O)(Cn4cncn4)c4ccc(F)cc4F)CC3)cc2o1` (configuration not stated), the MIC80 amounted to 0.25 µg/mL (≈ 0.489 µM). To `OC(CN1CCN(CCn2c3ccccc3c3cc(Br)ccc32)CC1)(Cn1cncn1)c1ccc(F)cc1F` (configuration not stated) belongs 0.25 µg/mL (≈ 0.42 µM); to `COc1ccc2c(ccn2CCN2CCN(CC(O)(Cn3cncn3)c3ccc(F)cc3F)CC2)c1` (configuration not stated), 0.031 µg/mL (≈ 0.0624 µM). As to `COc1ccc2c(ccn2CCCCCCCCCN2CCN(CC(O)(Cn3cncn3)c3ccc(F)cc3F)CC2)c1` (configuration not stated), the MIC80 was 0.5 µg/mL (≈ 0.841 µM). `Cc1ccc(S(=O)(=O)N2CCN(CC(O)(Cn3cncn3)c3ccc(F)cc3F)CC2)cc1` (configuration not stated): the MIC80 is 0.125 µg/mL (≈ 0.262 µM). With `O[C@](CN1CCN(CCn2ccc3cc(Br)ccc32)CC1)(Cn1cncn1)c1ccc(F)cc1F`, the MIC80 was 25 µg/mL (≈ 45.8 µM).

As to `COc1ccc2c(ccn2CCCCCN2CCN(CC(O)(Cn3cncn3)c3ccc(F)cc3F)CC2)c1` (configuration not stated), the MIC80 came to 0.125 µg/mL (≈ 0.232 µM). Regarding `O=S(=O)(c1ccc(F)cc1)N1CCN(CC(O)(Cn2cncn2)c2ccc(F)cc2F)CC1` (configuration not stated), the MIC80 is 0.125 µg/mL (≈ 0.26 µM). As for `OC(CN1CCN(CCCCCn2ccc3cc(Br)ccc32)CC1)(Cn1cncn1)c1ccc(F)cc1F` (configuration not stated), the MIC80 amounted to 0.125 µg/mL (≈ 0.213 µM). To `OC(CN1CCN(CCCCCCCCCn2ccc3cc(Br)ccc32)CC1)(Cn1cncn1)c1ccc(F)cc1F` (configuration not stated) belongs 0.25 µg/mL (≈ 0.388 µM); to `OC(CN1CCN(CCCCCCCCCCn2ccc3cc(Cl)ccc32)CC1)(Cn1cncn1)c1ccc(F)cc1F` (configuration not stated), 0.5 µg/mL (≈ 0.815 µM); to `OC(CN1CCN(CCCCCCCCCn2ccc3cc(Cl)ccc32)CC1)(Cn1cncn1)c1ccc(F)cc1F` (configuration not stated), 0.25 µg/mL (≈ 0.417 µM).

In the case of `OC(CN1CCN(CCc2ccccc2)CC1)(Cn1cncn1)c1ccc(F)cc1F` (configuration not stated), the MIC80 is 0.125 µg/mL (≈ 0.292 µM).

Regarding `OC(CN1CCN(CCn2ncc3ccccc32)CC1)(Cn1cncn1)c1ccc(F)cc1F` (configuration not stated), the MIC80 was 0.062 µg/mL (≈ 0.133 µM). As for `COc1ccc(S(=O)(=O)N2CCN(CC(O)(Cn3cncn3)c3ccc(F)cc3F)CC2)cc1` (configuration not stated), the MIC80 was determined as 0.25 µg/mL (≈ 0.507 µM).

For the molecule `Cc1ccc2c(c1)C(=O)C(=O)N2CCN1CCN(CC(O)(Cn2cncn2)c2ccc(F)cc2F)CC1` (configuration not stated), the MIC80 amounted to 0.125 µg/mL (≈ 0.245 µM).

As for `O=C(c1ccc2c(c1)OCO2)N1CCN(CC(O)(Cn2cncn2)c2ccc(F)cc2F)CC1` (configuration not stated), the MIC80 was found to be 0.25 µg/mL (≈ 0.53 µM). To `OC(CN1CCN(CCCCCn2ccc3ccc(F)cc32)CC1)(Cn1cncn1)c1ccc(F)cc1F` (configuration not stated) belongs 0.125 µg/mL (≈ 0.237 µM). As for `OC(CN1CCN(CCCCCCn2ccc3ccc(F)cc32)CC1)(Cn1cncn1)c1ccc(F)cc1F` (configuration not stated), the MIC80 was determined as 0.125 µg/mL (≈ 0.231 µM). As for `O=C(c1ccc2ncccc2c1)N1CCN(CC(O)(Cn2cncn2)c2ccc(F)cc2F)CC1` (configuration not stated), the MIC80 was 0.125 µg/mL (≈ 0.261 µM).

Consider `OC(CN1CCN(CCn2ccc3ccccc32)CC1)(Cn1cncn1)c1ccc(F)cc1F` (configuration not stated), for which the MIC80 is 0.031 µg/mL (≈ 0.0664 µM).

As for `OC(CN1CCN(CCCCCCCCCCn2ccc3cc(Br)ccc32)CC1)(Cn1cncn1)c1ccc(F)cc1F` (configuration not stated), the MIC80 stood at 0.25 µg/mL (≈ 0.38 µM). `OC(CN1CCN(CCn2ncc3cc(Br)ccc32)CC1)(Cn1cncn1)c1ccc(F)cc1F` (configuration not stated): the MIC80 came to 0.062 µg/mL (≈ 0.113 µM). For `OC(CN1CCN(CCOc2ccc3c(c2)OCO3)CC1)(Cn1cncn1)c1ccc(F)cc1F` (configuration not stated), the MIC80 stood at 0.125 µg/mL (≈ 0.256 µM). In the case of `COc1ccc2c(ccn2CCCCCCN2CCN(CC(O)(Cn3cncn3)c3ccc(F)cc3F)CC2)c1` (configuration not stated), the MIC80 amounted to 0.25 µg/mL (≈ 0.452 µM). `OC(CN1CCN(CCn2ncc3cc(I)ccc32)CC1)(Cn1cncn1)c1ccc(F)cc1F` (configuration not stated): the MIC80 amounted to 0.062 µg/mL (≈ 0.104 µM). Take `O=C(c1cc2cc(F)ccc2oc1=O)N1CCN(CC(O)(Cn2cncn2)c2ccc(F)cc2F)CC1` (configuration not stated): the MIC80 was 0.25 µg/mL (≈ 0.487 µM). With `O=S(=O)(c1ccc(Cl)cc1)N1CCN(CC(O)(Cn2cncn2)c2ccc(F)cc2F)CC1` (configuration not stated), the MIC80 came to 0.125 µg/mL (≈ 0.251 µM). Turning to `O=C(c1ccc2ccccc2c1)N1CCN(CC(O)(Cn2cncn2)c2ccc(F)cc2F)CC1` (configuration not stated), the MIC80 was 0.062 µg/mL (≈ 0.13 µM).

On to `OC(CN1CCN(CCc2cccc3ccccc23)CC1)(Cn1cncn1)c1ccc(F)cc1F` (configuration not stated), for which the MIC80 turned out to be 0.25 µg/mL (≈ 0.523 µM). For `O=C(c1cccc2ccccc12)N1CCN(CC(O)(Cn2cncn2)c2ccc(F)cc2F)CC1` (configuration not stated), the MIC80 amounted to 0.25 µg/mL (≈ 0.524 µM). `O=C(c1cc2ccccc2oc1=O)N1CCN(CC(O)(Cn2cncn2)c2ccc(F)cc2F)CC1` (configuration not stated): the MIC80 was found to be 0.062 µg/mL (≈ 0.125 µM). Take `O[C@@](CN1CCN(CCn2ncc3ccccc32)CC1)(Cn1cncn1)c1ccc(F)cc1F`: the MIC80 came to 0.031 µg/mL (≈ 0.0663 µM). In the case of `OC(CN1CCN(CCCCCCn2ccc3cc(Br)ccc32)CC1)(Cn1cncn1)c1ccc(F)cc1F` (configuration not stated), the MIC80 is 0.125 µg/mL (≈ 0.208 µM).
